Key:
Assay type in all cases: in vivo
[1] = tested on: barnyard grass (Echinochloa crus-galli Beauv.); experiment: Test Example 1: herbicidal effect on paddy field weeds before emergence; details: Dosage 5 kg/ha
In short: (§1)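 Seeds of both weeds, still ungerminated, in soil pots held under paddy conditions received a set dose of test solution as soil treatment. After twenty-one days, control relative to untreated pots was calculated and rated on a scoring scale.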

[2] = tested on: bulrush (Scirpus juncoides Roxb.); experiment: as above; details: Dosage 5 kg/ha
In short: as §1

[3] = tested on: barnyard grass (Echinochloa crus-galli Beauv.); experiment: Test Example 2: herbicidal effect on paddy field weeds after emergence; details: Dosage 5 kg/ha; one-leaved stage; 21 days after treatment
In short: (§2)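 Weeds in flooded paddy-soil pots were grown to the one-leaved stage, then the soil was treated with the compound solution at a set dosage.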

[4] = tested on: bulrush (Scirpus juncoides Roxb.); experiment: as above; details: Dosage 5 kg/ha; one-leaved stage; 21 days after treatment
In short: as §2

[5] = tested on: monochoria (Monochoria vaginalis Presl); experiment: as above; details: Dosage 5 kg/ha; one-leaved stage; 21 days after treatment
In short: as §2

[6] = tested on: barnyard grass (Echinochloa crus-galli Beauv.), Ec; experiment: Test Example 3: herbicidal effect on upland weeds before emergence; details: dosage 5 kg/ha
In short: (§3)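 Test compound, formulated as a liquid at a fixed concentration, is sprayed before weed emergence. Two weeks later, kill rate is derived and herbicidal activity is rated.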

[7] = tested on: bird's eye speedwell (Veronica persica Poir.), Vp; experiment: as above; details: dosage 5 kg/ha
In short: as §3

[8] = tested on: cleavers (Galium aparine L.), Ga; experiment: as above; details: dosage 5 kg/ha
In short: as §3

[9] = tested on: cocklebur (Xanthium strumarium L.), Xs; experiment: as above; details: dosage 5 kg/ha
In short: as §3

[10] = tested on: forxtail grass (Alopecurus aequalis var. amurensis Ohwi), Am; experiment: as above; details: foxtail grass, dosage 5 kg/ha
In short: as §3

[11] = tested on: velvetleaf (Abutilon theophtasti L.), At; experiment: as above; details: dosage 5 kg/ha
In short: as §3

soybean plant (So) = experiment: Test Example 3: phytotoxicity to upland crop plants, treatment before emergence; details: dosage 5 kg/ha
In short: (§4)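 Phytotoxicity scores for soybean and wheat were assigned by a set criterion 14 days after a pre-emergence spray of a liquid preparation containing the test compound at a prescribed concentration.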

wheat (Wh) = experiment: as above; details: dosage 5 kg/ha
In short: as §4

[12] = tested on: barnyard grass (Echinochloa crus-galli Beauv.), Ec; experiment: Test Example 4: herbicidal effect on upland weeds after emergence; details: dosage 5 kg/ha; sprayed after emergence; judged 14 days after treatment
In short: (§5)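 Seeds sown in soil and covered. Plants raised to specified leaf stages. Agent with test compound at a prescribed concentration sprayed. Herbicidal effect and crop damage scored after 14 days as weed-killing rate.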

[13] = tested on: bird's eye speedwell (Veronica persica Poir.), Vp; experiment: as above; details: dosage 5 kg/ha; sprayed after emergence; judged 14 days after treatment
In short: as §5

[14] = tested on: cleavers (Galium aparine L.), Ga; experiment: as above; details: dosage 5 kg/ha; sprayed after emergence; judged 14 days after treatment
In short: as §5

[15] = tested on: cocklebur (Xanthium strumarium L.), Xs; experiment: as above; details: dosage 5 kg/ha; sprayed after emergence; judged 14 days after treatment
In short: as §5

[16] = tested on: forxtail grass (Alopecurus aequalis var. amurensis Ohwi), Am; experiment: as above; details: dosage 5 kg/ha; sprayed after emergence; judged 14 days after treatment
In short: as §5

[17] = tested on: velvetleaf (Abutilon theophtasti L.), At; experiment: as above; details: dosage 5 kg/ha; sprayed after emergence; judged 14 days after treatment
In short: as §5

soybean plant = experiment: Test Example 4: phytotoxicity to upland crop plants, treatment after emergence; details: dosage 5 kg/ha, sprayed after emergence, judged 14 days after treatment
In short: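 Post-emergence foliar spray at a prescribed concentration, applied once the sown weeds and soybean reached defined leaf stages in soil vats; herbicidal effect and soybean injury scored after 14 days.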

wheat = experiment: as above; details: dosage 5 kg/ha, sprayed after emergence, judged 14 days after treatment
In short: as §5

| Structure (SMILES) | Pre-emergence treatment Barnyard grass (herbicidal effect) [1] | Pre-emergence treatment Bulrush (herbicidal effect) [2] | Post-emergence treatment Barnyard grass (herbicidal effect) [3] | Post-emergence treatment Bulrush (herbicidal effect) [4] | Post-emergence treatment Monochoria (herbicidal effect) [5] | Herbicidal effect Ec [6] | Herbicidal effect Vp [7] | Herbicidal effect Ga [8] | Herbicidal effect Xs [9] | Herbicidal effect Am [10] | Herbicidal effect At [11] | Phytotoxicity So (soybean plant (So)) | Phytotoxicity Wh (wheat (Wh)) | Herbicidal effect Ec [12] | Herbicidal effect Vp [13] | Herbicidal effect Ga [14] | Herbicidal effect Xs [15] | Herbicidal effect Am [16] | Herbicidal effect At [17] | Phytotoxicity So (soybean plant) | other results |
| --- | --- | --- | --- | --- | --- | --- | --- | --- | --- | --- | --- | --- | --- | --- | --- | --- | --- | --- | --- | --- | --- |
| CCCNC(=O)c1nc2nc(C)n(C)c2cc1C(=O)Nc1c(CC)ccc(Cl)c1CC [compound 1233] | 5 (Weed-killing rate is 100%.) | 5 (Weed-killing rate is 100%.) | 5 (Weed-killing rate is 100%.) | 5 (Weed-killing rate is 100%.) | 5 (Weed-killing rate is 100%.) | 5 (Weed-killing rate is 100%.) | 5 (Weed-killing rate is 100%.) | 5 (Weed-killing rate is 100%.) | 5 (Weed-killing rate is 100%.) | 5 (Weed-killing rate is 100%.) | 5 (Weed-killing rate is 100%.) | 5 (Crop-killing rate is 100%.) | 5 (Crop-killing rate is 100%.) | 5 (Weed-killing rate is 100%.) | 5 (Weed-killing rate is 100%.) | 5 (Weed-killing rate is 100%.) | 5 (Weed-killing rate is 100%.) | 5 (Weed-killing rate is 100%.) | 5 (Weed-killing rate is 100%.) | 5 (Crop-killing rate is 100%.) | Phytotoxicity Wh (wheat): 5 (Crop-killing rate is 100%.) |
| CCCNC(=O)c1nc2ocnc2cc1C(=O)Nc1c(CC)ccc(Cl)c1CC [compound 1245] | 5 (Weed-killing rate is 100%.) | 5 (Weed-killing rate is 100%.) | 5 (Weed-killing rate is 100%.) | 5 (Weed-killing rate is 100%.) | 5 (Weed-killing rate is 100%.) | 5 (Weed-killing rate is 100%.) | 5 (Weed-killing rate is 100%.) | 5 (Weed-killing rate is 100%.) | 5 (Weed-killing rate is 100%.) | 5 (Weed-killing rate is 100%.) | 5 (Weed-killing rate is 100%.) | 5 (Crop-killing rate is 100%.) | 5 (Crop-killing rate is 100%.) | 5 (Weed-killing rate is 100%.) | 5 (Weed-killing rate is 100%.) | 5 (Weed-killing rate is 100%.) | 5 (Weed-killing rate is 100%.) | 5 (Weed-killing rate is 100%.) | 5 (Weed-killing rate is 100%.) | 5 (Crop-killing rate is 100%.) | Phytotoxicity Wh (wheat): 5 (Crop-killing rate is 100%.) |
| CCCNC(=O)c1nc2c(cc1C(=O)Nc1c(CC)ccc(Cl)c1CC)ncn2C [compound 1269] | 5 (Weed-killing rate is 100%.) | 5 (Weed-killing rate is 100%.) | 5 (Weed-killing rate is 100%.) | 5 (Weed-killing rate is 100%.) | 5 (Weed-killing rate is 100%.) | 5 (Weed-killing rate is 100%.) | 5 (Weed-killing rate is 100%.) | 5 (Weed-killing rate is 100%.) | 5 (Weed-killing rate is 100%.) | 5 (Weed-killing rate is 100%.) | 5 (Weed-killing rate is 100%.) | 4 (Crop-killing rate is 90-99%.) | 5 (Crop-killing rate is 100%.) | 5 (Weed-killing rate is 100%.) | 5 (Weed-killing rate is 100%.) | 5 (Weed-killing rate is 100%.) | 5 (Weed-killing rate is 100%.) | 5 (Weed-killing rate is 100%.) | 5 (Weed-killing rate is 100%.) | 4 (Crop-killing rate is 90-99%.) | Phytotoxicity Wh (wheat): 5 (Crop-killing rate is 100%.) |
| CCCNC(=O)c1nc2c(cc1C(=O)Nc1c(CC)ccc(Cl)c1CC)nc(C)n2C [compound 1294] | 5 (Weed-killing rate is 100%.) | 5 (Weed-killing rate is 100%.) | 5 (Weed-killing rate is 100%.) | 5 (Weed-killing rate is 100%.) | 5 (Weed-killing rate is 100%.) | 5 (Weed-killing rate is 100%.) | 5 (Weed-killing rate is 100%.) | 5 (Weed-killing rate is 100%.) | 5 (Weed-killing rate is 100%.) | 5 (Weed-killing rate is 100%.) | 5 (Weed-killing rate is 100%.) | 4 (Crop-killing rate is 90-99%.) | 5 (Crop-killing rate is 100%.) | 5 (Weed-killing rate is 100%.) | 5 (Weed-killing rate is 100%.) | 5 (Weed-killing rate is 100%.) | 5 (Weed-killing rate is 100%.) | 5 (Weed-killing rate is 100%.) | 5 (Weed-killing rate is 100%.) | 4 (Crop-killing rate is 90-99%.) | Phytotoxicity Wh (wheat): 5 (Crop-killing rate is 100%.) |
| CCNC(=O)c1nc2ccccc2nc1C(=O)Nc1c(CC)ccc(Cl)c1CC [compound 1305] | 5 (Weed-killing rate is 100%.) | 5 (Weed-killing rate is 100%.) | 5 (Weed-killing rate is 100%.) | 5 (Weed-killing rate is 100%.) | 5 (Weed-killing rate is 100%.) | 5 (Weed-killing rate is 100%.) | 5 (Weed-killing rate is 100%.) | 5 (Weed-killing rate is 100%.) | 5 (Weed-killing rate is 100%.) | 5 (Weed-killing rate is 100%.) | 5 (Weed-killing rate is 100%.) | 5 (Crop-killing rate is 100%.) | 5 (Crop-killing rate is 100%.) | 5 (Weed-killing rate is 100%.) | 5 (Weed-killing rate is 100%.) | 5 (Weed-killing rate is 100%.) | 5 (Weed-killing rate is 100%.) | 5 (Weed-killing rate is 100%.) | 5 (Weed-killing rate is 100%.) | 5 (Crop-killing rate is 100%.) | Phytotoxicity Wh (wheat): 5 (Crop-killing rate is 100%.) |
